Assay results from ChEMBL document CHEMBL3400131, “Discovery of potent and selective urea-based ROCK inhibitors: Exploring the inhibitor's potency and ROCK2/PKA selectivity by 3D-QSAR, molecular docking and molecular dynamics simulations” (Bioorg Med Chem, 2015).

Molecular target: Rho-associated protein kinase 2 (Homo sapiens, UniProt O75116)
Experiment: Inhibition of ROCK2 (unknown origin) using STK2 substrate after 4 hrs by HTRF mode

Rho-associated protein kinase 2, sequence (O75116 whole entry): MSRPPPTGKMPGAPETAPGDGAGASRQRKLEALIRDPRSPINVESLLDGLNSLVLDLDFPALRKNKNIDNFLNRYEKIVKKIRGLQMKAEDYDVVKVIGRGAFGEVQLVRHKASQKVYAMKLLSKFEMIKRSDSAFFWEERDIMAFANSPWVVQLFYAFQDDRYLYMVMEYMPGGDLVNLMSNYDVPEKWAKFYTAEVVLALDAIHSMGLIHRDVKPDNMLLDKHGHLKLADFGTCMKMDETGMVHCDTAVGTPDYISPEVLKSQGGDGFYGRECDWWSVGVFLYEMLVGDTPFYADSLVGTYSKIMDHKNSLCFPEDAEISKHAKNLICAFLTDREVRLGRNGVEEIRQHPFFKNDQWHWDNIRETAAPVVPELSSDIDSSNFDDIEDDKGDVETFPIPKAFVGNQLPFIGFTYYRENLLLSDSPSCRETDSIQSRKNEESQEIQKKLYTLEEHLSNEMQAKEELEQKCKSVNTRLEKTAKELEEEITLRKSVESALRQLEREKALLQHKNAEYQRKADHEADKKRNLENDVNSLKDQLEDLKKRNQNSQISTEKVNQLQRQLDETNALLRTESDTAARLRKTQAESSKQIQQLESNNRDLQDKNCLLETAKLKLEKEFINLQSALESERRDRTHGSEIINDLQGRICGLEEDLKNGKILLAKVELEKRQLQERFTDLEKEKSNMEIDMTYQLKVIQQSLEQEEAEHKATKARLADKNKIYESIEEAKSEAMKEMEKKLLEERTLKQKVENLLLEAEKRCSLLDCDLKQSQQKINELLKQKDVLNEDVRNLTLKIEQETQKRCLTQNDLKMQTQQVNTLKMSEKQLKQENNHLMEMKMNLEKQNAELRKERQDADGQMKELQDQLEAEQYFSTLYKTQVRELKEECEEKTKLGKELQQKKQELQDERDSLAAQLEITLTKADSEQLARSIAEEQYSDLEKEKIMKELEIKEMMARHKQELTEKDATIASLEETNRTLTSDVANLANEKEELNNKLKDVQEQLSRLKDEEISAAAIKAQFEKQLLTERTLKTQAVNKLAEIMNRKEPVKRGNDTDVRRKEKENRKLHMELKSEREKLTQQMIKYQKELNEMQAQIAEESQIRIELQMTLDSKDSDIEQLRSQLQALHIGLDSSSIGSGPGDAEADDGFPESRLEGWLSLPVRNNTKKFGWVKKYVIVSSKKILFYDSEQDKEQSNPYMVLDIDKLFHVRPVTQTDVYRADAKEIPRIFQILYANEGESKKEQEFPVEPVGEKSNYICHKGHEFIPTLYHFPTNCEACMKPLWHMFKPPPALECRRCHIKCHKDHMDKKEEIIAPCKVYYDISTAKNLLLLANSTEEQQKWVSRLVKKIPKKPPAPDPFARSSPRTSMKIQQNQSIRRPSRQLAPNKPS

| Structure (SMILES) | IC50 [nM] |
| --- | --- |
| COc1cccc(CNC(=O)Nc2ccc(-c3ncnc4[nH]ccc34)cc2)c1 | 188 |
| CNC(=O)N(CCN(C)C)c1ccc(-c2cn[nH]c2)cc1 | 2980 |
| CNC(=O)N(C)c1ccc(-c2cn[nH]c2)cc1 | 87 |
| CN(C)CCOc1cc(-c2cn[nH]c2)ccc1NC(=O)N(CCN(C)C)Cc1ccccc1 | 170 |
| O=C(Nc1ccc(-c2cn[nH]c2)cc1OCCO)N(CCO)Cc1ccccc1 | < 1 |
| CC(C)N(Cc1ccccc1)C(=O)Nc1ccc(-c2cn[nH]c2)cc1 | 8 |
| CNC(=O)N(CCCN(C)C)c1ccc(-c2cn[nH]c2)cc1 | 3320 |
| CN(C)CCN(C)c1cc(-c2cn[nH]c2)ccc1NC(=O)NCc1ccccc1 | 8.5 |
| CN(C)CCSc1cc(-c2cn[nH]c2)ccc1NC(=O)NCc1ccccc1 | 5.6 |
| CNC(=O)N(CCO)c1ccc(-c2cn[nH]c2)cc1 | 611 |

Test system: not listed separately
Experiment: Inhibition of recombinant human full length PKA using kemptide substrate after 80 mins by luminescence mode

| Structure (SMILES) | IC50 [nM] |
| --- | --- |
| COc1cccc(CNC(=O)Nc2ccc(-c3ncnc4[nH]ccc34)cc2)c1 | 744 |
| CCN(Cc1cccc(OC)c1)C(=O)Nc1ccc(-c2cn[nH]c2)cc1O[C@H]1CCN(C)C1 | 6700 |
| CNC(=O)N(CCN(C)C)c1ccc(-c2cn[nH]c2)cc1 | 4200 |
| COc1cccc(CN(C(=O)Nc2ccc(-c3cn[nH]c3)cc2)C(C)C)c1 | 18400 |
| COc1cccc(CN(CCN2CCCCC2)C(=O)Nc2ccc(-c3cn[nH]c3)cc2)c1 | 338 |
| COc1cccc(CN(CCN2CCOCC2)C(=O)Nc2ccc(-c3cn[nH]c3)cc2)c1 | 3820 |
| COc1cccc(CN(CCCN2CCOCC2)C(=O)Nc2ccc(-c3cn[nH]c3)cc2)c1 | 724 |
| COc1cccc(CNC(=O)Nc2ccc(-c3cn[nH]c3)cc2OCCN(C)C)c1 | 3900 |
| O=C(NCc1cccc(Cl)c1)Nc1ccc(-c2cn[nH]c2)cc1 | 454 |
| O=C(NCc1cccc(F)c1)Nc1ccc(-c2cn[nH]c2)cc1 | 322 |
| COc1cccc(CNC(=O)Nc2ccc(-c3cn[nH]c3)cc2N(C)C)c1 | 38 |
| COc1cccc(CNC(=O)Nc2ccc(-c3cn[nH]c3)cc2F)c1 | 1820 |
| CNC(=O)N(C)c1ccc(-c2cn[nH]c2)cc1 | > 20000 |
| O=C(Nc1ccc(-c2cn[nH]c2)cc1)NC(CCO)c1ccccc1 (stereo unspecified) | 438 |
| COc1ccc(OC)c(CNC(=O)Nc2ccc(-c3cn[nH]c3)cc2)c1 | > 20000 |
| O=C(NCc1ccccc1)Nc1ccc(-c2cn[nH]c2)cc1 | 590 |
| COc1cccc(CNC(=O)Nc2ccc(-c3cn[nH]c3)cc2)c1 | 882 |
| COCCN(Cc1cccc(OC)c1)C(=O)Nc1ccc(-c2cn[nH]c2)cc1 | 10500 |
| CCN(Cc1cccc(OC)c1)C(=O)Nc1ccc(-c2cn[nH]c2)cc1OCCN1CCCC1 | 18100 |
| O=C(Nc1ccc(-c2cn[nH]c2)cc1)NC(CCO)c1cccc(F)c1 (stereo unspecified) | 580 |
| COc1cccc(OC)c1CNC(=O)Nc1ccc(-c2cn[nH]c2)cc1 | 13500 |
| O=C(NCCc1ccccc1)Nc1ccc(-c2cn[nH]c2)cc1 | 3100 |

| Structure (SMILES) | IC50 [nM] |
| --- | --- |
| COc1cccc(CN(CCO)C(=O)Nc2ccc(-c3cn[nH]c3)cc2)c1 | 2990 |
| COc1cc(CNC(=O)Nc2ccc(-c3cn[nH]c3)cc2)cc(OC)c1 | > 20000 |
| CCN(Cc1cccc(OC)c1)C(=O)Nc1ccc(-c2cn[nH]c2)cc1 | 4670 |
| O=C(Nc1ccc(-c2cn[nH]c2)cc1)N1CCc2ccccc2C1 | 8000 |
| Nc1cccc(CNC(=O)Nc2ccc(-c3cn[nH]c3)cc2)c1 | 405 |
| COc1ccc(CNC(=O)Nc2ccc(-c3cn[nH]c3)cc2)cc1OC | > 20000 |
| COc1ccc(CNC(=O)Nc2ccc(-c3cn[nH]c3)cc2)c(OC)c1 | 11200 |
| O=C(Nc1ccc(-c2cn[nH]c2)cc1OCCO)N(CCO)Cc1ccccc1 | 615 |
| COc1cccc(CNC(=O)Nc2ccc(-c3cn[nH]c3)cc2OC)c1 | 163 |
| Cc1cccc(CNC(=O)Nc2ccc(-c3cn[nH]c3)cc2)c1 | 2630 |
| COc1cccc(CN(CCN2CCCC2)C(=O)Nc2ccc(-c3cn[nH]c3)cc2)c1 | 541 |
| COc1cccc(CNC(=O)Nc2ccc(-c3ccnc(N)n3)cc2)c1 | 1030 |
| CN(C)CCC(NC(=O)Nc1ccc(-c2cn[nH]c2)cc1)c1ccccc1 (stereo unspecified) | 238 |
| COc1cccc(CN(CCCN2CCCCC2)C(=O)Nc2ccc(-c3cn[nH]c3)cc2)c1 | 822 |
| COc1cccc(CNC(=O)Nc2ccc(-c3cn[nH]c3)cc2Cl)c1 | 313 |
| CC(C)N(Cc1ccccc1)C(=O)Nc1ccc(-c2cn[nH]c2)cc1 | 3380 |
| COc1cccc(CN(C)C(=O)Nc2ccc(-c3cn[nH]c3)cc2)c1 | 1810 |
| COc1cccc(CN(CCN(C)C)C(=O)Nc2ccc(-c3cn[nH]c3)cc2)c1 | 456 |
| O=C(NCC1CCCCC1)Nc1ccc(-c2cn[nH]c2)cc1 | > 20000 |
| COc1cccc(C(CCO)NC(=O)Nc2ccc(-c3cn[nH]c3)cc2)c1 (stereo unspecified) | 4870 |
| COc1cccc(CN(C)C(=O)Nc2ccc(-c3cn[nH]c3)cc2OCCN2CCCC2)c1 | > 20000 |
| COc1cccc(CNC(=O)Nc2ccc(-c3cn[nH]c3)cc2N(C)CCN(C)C)c1 | 3570 |

| Structure (SMILES) | IC50 [nM] |
| --- | --- |
| O=C(NCCCc1ccccc1)Nc1ccc(-c2cn[nH]c2)cc1 | > 20000 |
| COc1cccc(CN(CCCN2CCCC2)C(=O)Nc2ccc(-c3cn[nH]c3)cc2)c1 | 228 |
| COc1cccc(CNC(=O)Nc2ccc(-c3cn[nH]c3)cc2)c1OC | > 20000 |
| COc1cccc(CNC(=O)Nc2ccc(-c3c[nH]nc3C)cc2)c1 | 816 |
| COc1cccc(CNC(=O)Nc2ccc(-c3ccncc3)cc2)c1 | 2300 |
| COc1cccc(CNC(=O)Nc2ccc(-c3ccnc(N)c3)cc2)c1 | 5140 |
| CCN(Cc1cccc(OC)c1)C(=O)Nc1ccc(-c2cn[nH]c2)cc1N(C)CCN(C)C | 5000 |
| CNC(=O)N(CCCN(C)C)c1ccc(-c2cn[nH]c2)cc1 | 12000 |
| CCN(Cc1cccc(OC)c1)C(=O)Nc1ccc(-c2cn[nH]c2)cc1OCCN(C)C | > 20000 |
| CN(C)CCN(C)c1cc(-c2cn[nH]c2)ccc1NC(=O)NCc1ccccc1 | 894 |
| COc1cccc(CN(C)C(=O)Nc2ccc(-c3cn[nH]c3)cc2OCCN(C)C)c1 | 5220 |
| COc1cccc(CN(C)C(=O)Nc2ccc(-c3cn[nH]c3)cc2N(C)CCN(C)C)c1 | 4620 |
| COc1ccccc1CNC(=O)Nc1ccc(-c2cn[nH]c2)cc1 | 654 |
| O=C(Nc1ccc(-c2cn[nH]c2)cc1F)N(CCO)Cc1ccccc1 | 1020 |
| CN(C)CCSc1cc(-c2cn[nH]c2)ccc1NC(=O)NCc1ccccc1 | 468 |
| COc1cccc(CN(CCN)C(=O)Nc2ccc(-c3cn[nH]c3)cc2)c1 | 72 |
| O=C(Nc1ccc(-c2cn[nH]c2)cc1)N(CCO)Cc1ccccc1 | 610 |
| COc1ccc(CNC(=O)Nc2ccc(-c3cn[nH]c3)cc2)cc1F | 518 |
| O=C(Nc1ccc(-c2cn[nH]c2)cc1)NC(CO)c1ccccc1 (stereo unspecified) | 389 |
| COc1cccc(CN(C(=O)Nc2ccc(-c3cn[nH]c3)cc2)C2CC2)c1 | 1700 |
| COc1cccc(CNC(=O)Nc2ccc(-c3cn[nH]c3)cc2OCCN2CCCC2)c1 | 2730 |
| CNC(=O)N(CCO)c1ccc(-c2cn[nH]c2)cc1 | > 20000 |
